{"source": "paper PMC3542813", "about": "“High-throughput screening with the Eimeria tenella CDC2-related kinase2/cyclin complex EtCRK2/EtCYC3a” (Microbiology, 2012)", "key": {"EtCRK2/XlRINGO": {"target": "EtCRK2/XlRINGO (Eimeria tenella, UniProt Q6R8F0)", "assay": "biochemical", "description": "Therefore, we tested XlRINGO as an activator of EtCRK2.\n(§1) In order to discover specific inhibitors of EtCRK2 we performed an in vitro screening campaign supported by an in silico hit enrichment (Fig. 4)."}, "EtCRK2/EtCYC3a": {"target": "EtCRK2/EtCYC3a (Eimeria tenella, UniProt Q6R8F0)", "assay": "TR-FRET kinase assay, EtCRK2 activated by EtCYC3a", "type": "biochemical", "description": "as §1"}, "HsCDK2/HsCYCA": {"target": "HsCDK2/HsCYCA (Homo sapiens, UniProt P24941)", "assay": "TR-FRET kinase assay, human CDK2 activated by human cyclin A", "type": "biochemical", "settings": "for IC50 / Ki: mean±SD, n = 3–6"}, "EtCRK2": {"test_system": "EtCRK2", "parameters": "method as in Engels et al., 2010", "settings": "ref Engels et al., 2010, cited from earlier work"}, "[1]": {"test_system": "E. tenella schizont development", "parameters": "method as in Engels et al., 2010", "settings": "ref Engels et al., 2010, cited from earlier work"}, "host cell": {"test_system": "host cell", "parameters": "method as in Engels et al., 2010", "settings": "ref Engels et al., 2010; cited from earlier work"}, "[2]": {"target": "Eimeria tenella cyclin-like 3a (EtCYC3a), maltose binding protein fusion (Eimeria tenella)"}, "[3]": {"settings": "standard CDK inhibitors, mean±SD, n = 3–6, read-out: IC50 EtCRK2/XlRINGO"}, "[4]": {"settings": "standard CDK inhibitors, mean±SD, n = 3–6, read-out: Ki EtCRK2/XlRINGO"}, "[5]": {"settings": "standard CDK inhibitors, mean±SD, n = 3–6, read-out: IC50 EtCRK2/EtCYC3a"}, "[6]": {"settings": "standard CDK inhibitors, mean±SD, n = 3–6, read-out: Ki EtCRK2/EtCYC3a"}, "[7]": {"settings": "lead structures, mean±SD, n = 3–6, read-out: IC50 EtCRK2/ XlRINGO"}, "[8]": {"settings": "lead structures, mean±SD, n = 3–6, read-out: Ki EtCRK2/ XlRINGO"}, "[9]": {"settings": "lead structures, mean±SD, n = 3–6, read-out: IC50 EtCRK2/ EtCYC3a"}, "[10]": {"settings": "lead structures, mean±SD, n = 3–6, read-out: Ki EtCRK2/ ETCYC3a"}}, "note": "Read-outs that look alike come from different tables or passages of the source.", "data": [{"molecule": "NC1=NC(=O)/C(=C2\\CCNC(=O)c3[nH]c(Br)cc32)N1", "note": "[10-Z-Hymendialdisine, (4Z)-4-(2-amino-4-oxo-1H-imidazol-5-ylidene)-2-bromo-1,5,6,7-tetrahydropyrrolo[2,3-c]azepin-8-one]", "values": [{"measurement": "IC50", "setting": "EtCRK2/XlRINGO; [3]", "value": "440 ± 80", "unit": "nM"}, {"measurement": "Ki", "setting": "EtCRK2/XlRINGO; [4]", "value": "50 ± 20", "unit": "nM"}, {"measurement": "IC50", "setting": "EtCRK2/EtCYC3a", "value": "930 ± 40", "unit": "nM"}, {"measurement": "Ki", "setting": "EtCRK2/EtCYC3a", "value": "190 ± 10", "unit": "nM"}, {"measurement": "IC50", "setting": "HsCDK2/HsCYCA; standard CDK inhibitors", "value": "0.12 ± 0.02", "unit": "µM"}, {"measurement": "Ki", "setting": "HsCDK2/HsCYCA; standard CDK inhibitors", "value": "30 ± 1", "unit": "nM"}]}, {"molecule": "O=C1Cc2c([nH]c3ccc([N+](=O)[O-])cc23)-c2ccccc2N1", "note": "[Alsterpaullone, 9-nitro-7,12-dihydro-5H-indolo[3,2-d][1]benzazepin-6-one]", "values": [{"measurement": "IC50", "setting": "EtCRK2/XlRINGO; [3]", "value": "220 ± 60", "unit": "nM"}, {"measurement": "Ki", "setting": "EtCRK2/XlRINGO; [4]", "value": "70 ± 2", "unit": "nM"}, {"measurement": "IC50", "setting": "EtCRK2/EtCYC3a; [5]", "value": "640 ± 340", "unit": "nM"}, {"measurement": "Ki", "setting": "EtCRK2/EtCYC3a; [6]", "value": "210 ± 40", "unit": "nM"}]}, {"molecule": "OC(CSc1ccccc1)CN1CCC(Nc2nccc(C(F)(F)F)n2)CC1", "note": "(centres unmarked) [BES124764, 1-phenylsulfanyl-3-[4-[[4-(trifluoromethyl)pyrimidin-2-yl]amino]-1-piperidyl]propane-2-ol]", "values": [{"measurement": "IC50", "setting": "EtCRK2/XlRINGO; [7]", "value": "18600 ± 3720", "unit": "nM"}, {"measurement": "Ki", "setting": "EtCRK2/XlRINGO; [8]", "value": "4330 ± 920", "unit": "nM"}, {"measurement": "IC50", "setting": "EtCRK2/EtCYC3a; [9]", "value": "7350 ± 1820", "unit": "nM"}, {"measurement": "Ki", "setting": "EtCRK2/EtCYC3a; [10]", "value": "3420 ± 1080", "unit": "nM"}, {"measurement": "times more active towards the two E. tenella complexes than towards the HsCDK2/HsCYCA complex", "setting": "HsCDK2/HsCYCA; EtCRK2/XlRINGO and EtCRK2/EtCYC3a versus HsCDK2/HsCYCA", "value": "25–30 times"}, {"measurement": "IC50", "setting": "HsCDK2/HsCYCA; lead structures", "value": "> 200", "unit": "µM"}, {"measurement": "Ki", "setting": "HsCDK2/HsCYCA; lead structures", "value": "95300 ± 19100", "unit": "nM"}, {"measurement": "selectivity for EtCRK2 versus HsCDK2", "setting": "HsCDK2/HsCYCA; result in words", "value": "selective for EtCRK2"}]}, {"molecule": "Cc1cc(O)c2c(c1O)C(=O)C(Cl)=C(Cl)C2=O", "note": "[BES130131, 2,3-dichloro-5,8-dihydroxy-6-methyl-naphthalene-1,4-dione]", "values": [{"measurement": "IC50", "setting": "EtCRK2/XlRINGO; [7]", "value": "14800 ± 8410", "unit": "nM"}, {"measurement": "Ki", "setting": "EtCRK2/XlRINGO; [8]", "value": "5250 ± 200", "unit": "nM"}, {"measurement": "IC50", "setting": "EtCRK2/EtCYC3a; [9]", "value": "18100 ± 1030", "unit": "nM"}, {"measurement": "Ki", "setting": "EtCRK2/EtCYC3a; [10]", "value": "6870 ± 1740", "unit": "nM"}, {"measurement": "IC50", "setting": "HsCDK2/HsCYCA; lead structures", "value": "14.4 ± 1.52", "unit": "µM"}, {"measurement": "Ki", "setting": "HsCDK2/HsCYCA; lead structures", "value": "3350 ± 1060", "unit": "nM"}]}, {"molecule": "Nc1cc(S(=O)(=O)O)c2cccnc2c1O", "note": "[BES312351, 7-amino-8-hydroxy-quinoline-5-sulfonic acid hydrate]", "values": [{"measurement": "IC50", "setting": "EtCRK2/XlRINGO; [7]", "value": "7130 ± 2490", "unit": "nM"}, {"measurement": "Ki", "setting": "EtCRK2/XlRINGO; [8]", "value": "940 ± 310", "unit": "nM"}, {"measurement": "IC50", "setting": "EtCRK2/EtCYC3a", "value": "6500 ± 2490", "unit": "nM"}, {"measurement": "Ki", "setting": "EtCRK2/EtCYC3a", "value": "4670 ± 2020", "unit": "nM"}, {"measurement": "IC50", "setting": "HsCDK2/HsCYCA; lead structures", "value": "5.16 ± 2.85", "unit": "µM"}, {"measurement": "Ki", "setting": "HsCDK2/HsCYCA; lead structures", "value": "780 ± 610", "unit": "nM"}]}, {"molecule": "CN1CC[C@H](c2c(O)cc(O)c3c(=O)cc(-c4ccccc4Cl)oc23)[C@H](O)C1", "note": "[Flavopiridole, 2-(2-chlorophenyl)-5,7-dihydroxy-8-[(3S,4R)-3-hydroxy-1-methyl-4-piperidinyl]-4H-1-benzopyran-4-one]", "values": [{"measurement": "IC50", "setting": "EtCRK2; read-out: IC50 EtCRK2 in enzyme assays", "value": "33 ± 10", "unit": "nM"}, {"measurement": "Ki", "setting": "EtCRK2; read-out: Ki EtCRK2 in enzyme assays", "value": "11 ± 3", "unit": "nM"}, {"measurement": "inhibition of E. tenella schizont development", "setting": "[1]; at concentrations of 150 and 300 nM", "value": "fully inhibits"}, {"measurement": "inhibition of E. tenella schizont development", "setting": "[1]; concentrations below 80 nm", "value": "no inhibitory effects"}, {"measurement": "concentrations at which host cell toxicity is observed", "setting": "host cell", "value": "above 600 nM"}]}, {"molecule": "O=C1Nc2ccc(S(=O)(=O)O)cc2/C1=C1/Nc2ccccc2C1=O", "note": "[Indirubin-5′-sulfonic acid, (3Z)-2-oxo-3-(3-oxo-1H-indol-2-ylidene)-1H-indole-5-sulfonic acid]", "values": [{"measurement": "IC50", "setting": "EtCRK2/XlRINGO; [3]", "value": "670 ± 180", "unit": "nM"}, {"measurement": "Ki", "setting": "EtCRK2/XlRINGO; [4]", "value": "170 ± 30", "unit": "nM"}, {"measurement": "IC50", "setting": "EtCRK2/EtCYC3a; [5]", "value": "940 ± 310", "unit": "nM"}, {"measurement": "Ki", "setting": "EtCRK2/EtCYC3a; [6]", "value": "240 ± 100", "unit": "nM"}]}, {"molecule": "CC(C)C(CO)Nc1nc(Nc2cccc(Cl)c2)c2ncn(C(C)C)c2n1", "note": "(centres unmarked) [Purvalanol A, 2-[[6-[(3-chlorophenyl)amino]-9-isopropyl-purin-2-yl]amino]-3-methyl-butan-1-ol]", "values": [{"measurement": "IC50", "setting": "EtCRK2/XlRINGO", "value": "800 ± 110", "unit": "nM"}, {"measurement": "Ki", "setting": "EtCRK2/XlRINGO", "value": "80 ± 10", "unit": "nM"}, {"measurement": "IC50", "setting": "EtCRK2/EtCYC3a; [5]", "value": "1030 ± 180", "unit": "nM"}, {"measurement": "Ki", "setting": "EtCRK2/EtCYC3a; [6]", "value": "360 ± 130", "unit": "nM"}, {"measurement": "IC50", "setting": "HsCDK2/HsCYCA; standard CDK inhibitors", "value": "0.14 ± 0.04", "unit": "µM"}, {"measurement": "Ki", "setting": "HsCDK2/HsCYCA; standard CDK inhibitors", "value": "40 ± 1", "unit": "nM"}]}, {"molecule": "CN[C@@H]1C[C@H]2O[C@@](C)([C@@H]1OC)n1c3ccccc3c3c4c(c5c6ccccc6n2c5c31)C(=O)NC4", "note": "[Staurosporine, (9S,10R,11R,13R)-2,3,10,11,12,13-hexahydro-10-methoxy-9-methyl-11-(methylamino)-9,13-epoxy-1H,9H-diindolo[1,2,3-gh:3′,2′,1′-lm]pyrrolo[3,4-j][1,7]benzodiazonin-1-one]", "values": [{"measurement": "IC50", "setting": "EtCRK2/XlRINGO", "value": "90 ± 10", "unit": "nM"}, {"measurement": "Ki", "setting": "EtCRK2/XlRINGO", "value": "20 ± 10", "unit": "nM"}, {"measurement": "IC50", "setting": "EtCRK2/EtCYC3a", "value": "190 ± 90", "unit": "nM"}, {"measurement": "Ki", "setting": "EtCRK2/EtCYC3a", "value": "530 ± 200", "unit": "nM"}]}, {"molecule": "Eimeria tenella CDC2-related kinase 2 (EtCRK2), His-tagged (enzyme)", "values": [{"measurement": "specific activity of EtCRK2 in the EtCRK2/EtCYC3a complex, TR-FRET kinase assay with fluorescein-labelled histone H1 substrate", "setting": "[2]", "value": 0.15, "unit": "µmol/min/mg"}]}]}
